By IC50 is commonly meant the point on the concentration scale where inhibition reaches its midpoint.

One assay concerns the target SHP1 (Homo sapiens, UniProt P29350). As to the kind of experiment: PTP activity assay with pNPP as substrate: SHP1. Type of assay: biochemical. To be noted: pNPP as substrate at Km, pH 7.0, 25° C., I = 0.15 M.
For a further assay, the target named is T1, PTP1B (Homo sapiens, UniProt P18031).
T1 sequence (P18031 1-435): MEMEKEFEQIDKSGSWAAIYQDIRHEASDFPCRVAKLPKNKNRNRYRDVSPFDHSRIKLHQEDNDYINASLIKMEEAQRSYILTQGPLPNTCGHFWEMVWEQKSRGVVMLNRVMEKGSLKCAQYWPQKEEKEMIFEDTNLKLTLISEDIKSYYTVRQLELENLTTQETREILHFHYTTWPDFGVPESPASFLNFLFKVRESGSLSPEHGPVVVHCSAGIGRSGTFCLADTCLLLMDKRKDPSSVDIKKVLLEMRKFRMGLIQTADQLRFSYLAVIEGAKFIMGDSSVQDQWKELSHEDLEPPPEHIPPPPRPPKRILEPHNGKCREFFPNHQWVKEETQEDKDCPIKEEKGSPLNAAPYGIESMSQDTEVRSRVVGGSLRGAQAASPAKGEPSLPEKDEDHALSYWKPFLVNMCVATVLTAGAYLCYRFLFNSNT
The assay is described as follows: PTP activity assay with pNPP as substrate: PTP1B. The assay is classed as biochemical. The conditions noted are these: pNPP as substrate at Km, pH 7.0, 25° C., I = 0.15 M.

In another assay the target is T2, Lyp (Homo sapiens, UniProt Q9Y2R2).
T2 sequence (Q9Y2R2 1-807): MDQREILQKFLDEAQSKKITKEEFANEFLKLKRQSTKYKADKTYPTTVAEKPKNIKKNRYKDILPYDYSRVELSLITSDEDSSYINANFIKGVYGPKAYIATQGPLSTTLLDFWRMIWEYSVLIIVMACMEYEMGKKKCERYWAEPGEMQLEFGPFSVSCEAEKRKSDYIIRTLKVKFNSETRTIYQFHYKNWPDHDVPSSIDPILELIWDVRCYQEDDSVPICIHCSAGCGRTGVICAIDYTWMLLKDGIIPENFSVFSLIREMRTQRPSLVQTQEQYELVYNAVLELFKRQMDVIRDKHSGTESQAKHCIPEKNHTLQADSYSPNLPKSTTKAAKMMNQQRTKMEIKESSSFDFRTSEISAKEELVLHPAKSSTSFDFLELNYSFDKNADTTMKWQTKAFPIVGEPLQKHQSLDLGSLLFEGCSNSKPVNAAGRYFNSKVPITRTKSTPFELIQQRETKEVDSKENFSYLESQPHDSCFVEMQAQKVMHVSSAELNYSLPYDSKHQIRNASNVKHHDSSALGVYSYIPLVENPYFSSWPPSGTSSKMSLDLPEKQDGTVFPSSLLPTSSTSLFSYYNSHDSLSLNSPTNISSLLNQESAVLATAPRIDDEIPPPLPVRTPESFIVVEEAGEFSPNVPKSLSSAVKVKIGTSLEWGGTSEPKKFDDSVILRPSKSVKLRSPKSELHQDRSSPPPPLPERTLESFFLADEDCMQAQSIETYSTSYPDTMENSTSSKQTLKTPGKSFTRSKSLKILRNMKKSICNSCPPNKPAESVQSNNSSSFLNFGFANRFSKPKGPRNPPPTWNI
The assay is described as follows: PTP activity assay with pNPP as substrate: Lyp. The assay is classed as biochemical. The conditions noted are these: pNPP as substrate at Km, pH 7.0, 25° C., I = 0.15 M.

In the next assay the target is VHR (Homo sapiens, UniProt P51452). The assay is described as follows: PTP activity assay with pNPP as substrate: VHR. To be noted: pNPP as substrate at Km, pH 7.0, 25° C., I = 0.15 M. Type of assay: biochemical.
VHR, sequence (P51452 whole entry, species assumed): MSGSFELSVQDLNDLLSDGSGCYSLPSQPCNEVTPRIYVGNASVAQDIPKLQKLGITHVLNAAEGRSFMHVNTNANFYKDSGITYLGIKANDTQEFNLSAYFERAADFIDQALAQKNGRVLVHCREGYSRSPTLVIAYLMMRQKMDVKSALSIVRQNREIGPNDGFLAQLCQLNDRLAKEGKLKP
Another assay concerns the target T3, Cdc14A (Homo sapiens, UniProt Q9UNH5).
T3 sequence (Q9UNH5 1-594): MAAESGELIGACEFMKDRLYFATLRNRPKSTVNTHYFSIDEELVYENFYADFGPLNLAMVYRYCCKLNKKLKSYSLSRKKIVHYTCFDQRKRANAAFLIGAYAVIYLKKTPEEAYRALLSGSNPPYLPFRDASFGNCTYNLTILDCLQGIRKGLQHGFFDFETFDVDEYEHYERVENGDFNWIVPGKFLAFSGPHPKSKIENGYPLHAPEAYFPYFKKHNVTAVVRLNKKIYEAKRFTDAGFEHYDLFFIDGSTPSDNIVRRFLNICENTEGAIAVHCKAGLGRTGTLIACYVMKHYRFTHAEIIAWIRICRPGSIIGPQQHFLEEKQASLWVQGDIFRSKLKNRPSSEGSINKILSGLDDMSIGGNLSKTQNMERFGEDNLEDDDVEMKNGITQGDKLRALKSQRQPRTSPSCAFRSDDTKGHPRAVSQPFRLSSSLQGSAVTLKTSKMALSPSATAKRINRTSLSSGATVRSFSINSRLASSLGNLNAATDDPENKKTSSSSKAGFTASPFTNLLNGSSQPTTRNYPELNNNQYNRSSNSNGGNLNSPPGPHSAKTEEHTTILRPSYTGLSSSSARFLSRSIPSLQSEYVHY
The assay is described as follows: PTP activity assay with pNPP as substrate: Cdc14A. Type of assay: biochemical. To be noted: pNPP as substrate at Km, pH 7.0, 25° C., I = 0.15 M.

The test system of assay [1] is TCR-mediated tyrosine phosphorylation in Jurkat T cells. The assay is described as follows: Anti-CD3 (TCR) induced tyrosine phosphorylation in Jurkat T cells, immunoblot. The assay is classed as cell-based. The conditions noted are these: 2-4 μM, 2 hours pretreatment, anti-CD3 stimulation. The protocol:
Jurkat T cells were grown at 37° C. under an atmosphere of 5% CO2 in RPMI medium 1640 supplemented with 10% FBS. Cells were pretreated with different concentrations of TTN, TTN D-1, or TTM for 2 hours and stimulated with […] anti-CD3 antibody (OKT3; eBioscience) for 5 min and 30 min, respectively. Subsequently, cells were spinned down at 2000 rpm in 4° C., and cell pellets were lysed in 50 mM Tris-HCl (pH 7.5), 150 mM NaCl, 10% glycerol, 1% NP-40, 50 mM NaF, 10 mM pyrophosphate, 5 mM idoacetate, 1 mM sodium orthovanadate, and the protease inhibitor mixture. After 30 min lysing on ice, the cell lysates were centrifuged at 13,200 rpm for 15 min. Total cellular proteins were separated by SDS/PAGE and transferred electrophoretically to nitrocellulose membrane, which was immunoblotted by appropriate antibodies followed by incubation with HRP-conjugated secondary antibodies. Blots were developed using Pierce Pico ECL reagent (Thermo) according to the manufacturer's instructions.
TTN induces immunosuppression by suppression of TCR-mediated tyrosine phosphorylation and ERK1/2 activity in T cells (Shim et al., 2002). However, the mechanism of action for TTN's ability to block TCR signaling remains undefined. […]

The test system of the next assay is T cell proliferation. The conditions noted are these: relative to cyclosporine A (CsA); cited from earlier work.

SHP1, sequence (P29350 whole entry): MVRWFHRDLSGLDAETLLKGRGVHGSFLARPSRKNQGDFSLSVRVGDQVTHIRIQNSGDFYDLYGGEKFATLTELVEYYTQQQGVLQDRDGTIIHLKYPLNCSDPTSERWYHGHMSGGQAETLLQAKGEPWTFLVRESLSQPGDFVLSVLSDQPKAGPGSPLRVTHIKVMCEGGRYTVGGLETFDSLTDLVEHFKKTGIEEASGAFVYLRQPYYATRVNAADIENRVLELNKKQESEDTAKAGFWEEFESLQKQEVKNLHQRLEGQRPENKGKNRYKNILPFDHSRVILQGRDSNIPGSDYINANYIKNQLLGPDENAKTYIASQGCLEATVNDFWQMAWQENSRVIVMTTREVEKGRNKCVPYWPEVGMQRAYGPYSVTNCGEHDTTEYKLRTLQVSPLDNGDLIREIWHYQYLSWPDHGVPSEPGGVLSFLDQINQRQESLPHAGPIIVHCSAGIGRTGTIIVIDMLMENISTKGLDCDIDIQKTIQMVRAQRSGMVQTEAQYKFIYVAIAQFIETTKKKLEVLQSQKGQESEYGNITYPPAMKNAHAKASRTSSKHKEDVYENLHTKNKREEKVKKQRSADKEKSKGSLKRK
Protocol for Cdc14A: (§1) The PTP activity was assayed using pNPP as a substrate at 25° C. in 50 mM 3,3-dimethylglutarate buffer, pH 7.0, containing 1 mM EDTA with an ionic strength of 0.15 M adjusted by NaCl. TTM, TTN and the engineered analogs were analyzed for inhibition of a panel of PTPs at 10 μM compound concentration. For each enzyme screened, test compounds were diluted to 20 μM in 100 μL and combined with 50 μL pNPP at a concentration of 4×Km. The reaction was initiated by the addition of 50 μL of 4× concentrated enzyme and pNPP was allowed to convert to the product p-nitrophenol. The reaction was quenched by the addition of 50 μL of 5N NaOH. Nonenzymatic hydrolysis of pNPP was corrected by measuring the control without the addition of enzyme. Production of p-nitrophenol was monitored by a Spectra MAX385 microplate spectrophotometer (Molecular Devices) at 405 nm using a molar extinction coefficient of 18,000 M^−1 cm^−1. IC50 values were calculated by fitting the absorbance at 405 nm versus inhibitor concentration to the following equation: AI/A0=IC50/(IC50+[I]) where AI is the absorbance at 405 nm of the sample in the presence of inhibitor; Ao is the absorbance at 405 nm in the absence of inhibitor; and [I] is the concentration of the inhibitor.
Protocol for Lyp: as §1
Protocol for PTP1B: as §1
Protocol for SHP1: as §1
Protocol for VHR: as §1

For the substance tautomycetin [TTN], the concentration for half-maximal inhibition (IC50) was 14.6 µM on SHP1; 40 µM against PTP1B; 20 µM against Lyp; more than 50 µM on VHR; more than 50 µM at Cdc14A. Besides, the “effect on TCR-mediated tyrosine phosphorylation” value in assay [1] was “efficiently attenuated”. The “concentration for inhibition of T cell proliferation, lower than that for maximal inhibition by cyclosporine A” value in the assay on T cell proliferation is listed as 100 fold.
